{"source": "patent US20070082883A1", "about": "“HIV protease inhibitors” (THE BOARD OF TRUSTEES OF THE UNIVERSITY OF ILLINOIS, priority 2002, published 2007)"}
{"target": "T1, HIV-1 protease (Human immunodeficiency virus type 1 group M subtype B, UniProt P04585)", "T1 construct": "made in house; host or cells: E. coli BL21 (dE3)pLysS, pET30a vector", "assay": "HIV-1 Protease Inhibition Assay", "type": "biochemical", "settings": "cells marked (pM) in a column headed nM", "description": "(§1) Assays of the dose-response effect of inhibitor compounds can be described as a curve expressing a degree of inhibition as a function of concentration. The curve theoretically passes through a point at which the concentration is sufficient to reduce activity of the HIV protease enzyme to a level that is 50% that of the difference between minimal and maximal enzyme activity in the assay.\n(§2) HIV-1 Protease Inhibition Assay\n(§3) The HIV-1 protease gene was subcloned into the pET30a vector (Novagen) and then transformed into BL21 (dE3)pLysS cells for protein expression. Protein expression and purification were followed according to Tang's procedure (Hong et al., Biochemistry, 1996, 35, 10627-10633). […] The inclusion body containing some bacterial proteins was thoroughly washed by using TRITON X-100, solubilized in […] and passed through the Q-sepharose column to remove the bacterial proteins which interfered with subsequent refolding steps. HIV-1 protease was refolded from the urea to an active form by dialysis. As a final step, gel filtration chromatography was used to remove impurities after refolding. Activities of purified HIV-1 protease were examined using a fluorogenic substrate, 2-aminobenzoyl-Thr-Ile-Nle-Phe(pNO2)-Gln-Arg-NH2 (Novabiochem). […] In the condition of So<<Km, v=Eo(kcat/Km)So, where Eo is the total enzyme concentration, and So is the substrate concentrate. […] Assays are carried out as described by Toth and Marshall (Toth et al., Int. J. Pept. Protein Res., 1990, 36, 544-50).", "units": {"IC50": "pM"}}
{"smiles": "Nc1ccc(S(=O)(=O)N(C[C@H]2CCC(=O)N2)C[C@@H](O)[C@H](Cc2ccccc2)NC(=O)OC2CC[C@H]3OCC[C@@H]23)cc1", "note": "(some centres unmarked) [Compound 281]", "IC50": 26}
{"target": "T1, HIV-1 protease", "assay": "HIV-1 Protease Inhibition Assay", "type": "biochemical", "settings": "fluorogenic substrate assay", "description": "as §1, §2, §3", "units": {"IC50": "pM", "Ki": "nM"}}
{"smiles": "CC(C)CN(C[C@@H](O)[C@H](Cc1ccccc1)NC(=O)OC1CO[C@H]2OCCC12)S(=O)(=O)c1ccc(Cl)c(O)c1", "note": "(some centres unmarked) [Compound 151]", "IC50": 3100, "Ki": 1}
{"smiles": "CC(C)CN(C[C@@H](O)[C@H](Cc1ccccc1)NC(=O)OC1CC2CCO[C@@H]2C1)S(=O)(=O)c1cc(O)cc(O)c1", "note": "(some centres unmarked) [Compound 100]", "IC50": 247000, "Ki": 77}
{"smiles": "COc1ccc(S(=O)(=O)N(C[C@H]2CCC(=O)N2)C[C@@H](O)[C@H](Cc2ccccc2)NC(=O)OC(C)(C)C)cc1", "note": "[Compound 271, ((1S)-Benzyl-(2R)-hydroxy-3-[(4-methoxybenzene-sulfonyl)-(5-oxopyrrolidin-(2R)-ylmethyl)amino]-propyl)carbamic acid tert-butyl ester]", "IC50": 3000}
{"smiles": "CC(C)CN(C[C@@H](O)[C@H](Cc1ccccc1)NC(=O)OC1CC2CCO[C@@H]2C1)S(=O)(=O)c1ccc(CN)cc1", "note": "(some centres unmarked) [Compound 125]", "IC50": 3500, "Ki": 1.1}
{"smiles": "CC(C)CN(C[C@@H](O)[C@H](Cc1ccccc1)NC(=O)OC1CO[C@H]2OCCC12)S(=O)(=O)c1cccc(CO)c1", "note": "(some centres unmarked) [Compound 114]", "IC50": 1100}
{"smiles": "COc1ccc(S(=O)(=O)N(C[C@@H](O)[C@H](Cc2ccccc2)NC(=O)O[C@H]2CCOC2)C2CN(C)C2)cc1", "note": "[Compound 206]", "IC50": 109000, "Ki": 34}
{"smiles": "COc1ccc(S(=O)(=O)N(C[C@H]2CCC(=O)N2)C[C@@H](O)[C@H](Cc2ccccc2)NC(=O)OC2CC[C@H]3OCC[C@@H]23)cc1", "note": "(some centres unmarked) [Compound 277]", "IC50": 100}
{"smiles": "CC(C)CN(C[C@@H](O)[C@H](Cc1ccccc1)NC(=O)OC(C)(C)C)S(=O)(=O)c1ccc(CN2CCN(C)CC2)cc1", "note": "[Compound 137]", "IC50": "2.1e+06"}
{"smiles": "CC(C)(C)OC(=O)N[C@@H](Cc1ccccc1)[C@H](O)CN(C[C@H]1CCC(=O)N1)S(=O)(=O)c1ccc([N+](=O)[O-])cc1", "note": "[Compound 307a, {(1S)-Benzyl-(2R)-hydroxy-3-[(4-nitrobenzenesulfonyl)-(5-oxopyrrolidin-(2R)-ylmethyl)amino]propyl}-carbamic acid tert-butyl ester]", "IC50": 7000}
{"smiles": "CC(C)CN(C[C@@H](O)[C@H](Cc1ccccc1)NC(=O)O[C@H]1CCOC1)S(=O)(=O)c1ccc(CN2CCOCC2)cc1", "note": "[Compound 139]", "IC50": 968000}
{"smiles": "CC(C)CN(C[C@@H](O)[C@H](Cc1ccccc1)NC(=O)O[C@@H]1CC2CCO[C@@H]2C1)S(=O)(=O)c1ccc(/C=N/O)cc1", "note": "(some centres unmarked) [Compound 256]", "IC50": 1700}
{"smiles": "CC(C)CN(C[C@@H](O)[C@H](Cc1ccccc1)NC(=O)OC(C)(C)C)S(=O)(=O)c1cncc([N+](=O)[O-])c1", "note": "[Compound 163]", "IC50": 115000, "Ki": 36}
{"smiles": "CC(C)CN(C[C@@H](O)[C@H](Cc1ccccc1)NC(=O)OC1CCCC12CCCO2)S(=O)(=O)c1cccc(O)c1", "note": "(some centres unmarked) [Compound 75]", "IC50": 6700, "Ki": 2.1}
{"smiles": "COc1ccc(S(=O)(=O)N(CC(=O)[C@H](Cc2ccc(OCc3ccccc3)cc2)NC(=O)OC(C)(C)C)CC(C)C)cc1", "note": "[Compound 208]", "IC50": "> 2.3e+06"}
{"smiles": "CNCc1ccc(S(=O)(=O)N(CC(C)C)C[C@@H](O)[C@H](Cc2ccccc2)NC(=O)OC2CC3CCO[C@@H]3C2)cc1", "note": "(some centres unmarked) [Compound 126]", "IC50": 15000}
{"smiles": "COc1ccc(S(=O)(=O)N(N)C[C@@H](O)[C@H](Cc2ccccc2)NC(=O)O[C@H]2CO[C@H]3OCCC32)cc1", "note": "(some centres unmarked) [Compound 189]", "IC50": 55000, "Ki": 17}
{"smiles": "CC(C)CN(C[C@@H](O)[C@H](Cc1ccccc1)NC(=O)O[C@H]1CCOC1)S(=O)(=O)c1cncc([N+](=O)[O-])c1", "note": "[Compound 169]", "IC50": 7100, "Ki": 22}
{"smiles": "C=CCCCCN(C[C@@H](O)[C@H](Cc1ccccc1)NC(=O)O[C@@H]1CC2CCO[C@@H]2C1)S(=O)(=O)c1cccc(OCC=C)c1", "note": "(some centres unmarked) [Compound 225f]", "IC50": 11000, "Ki": 3.4}
{"smiles": "COc1ccc(S(=O)(=O)N(C[C@@H](O)[C@H](Cc2ccccc2)NC(=O)O[C@H]2CO[C@H]3OCCC32)C2CN(C)C2)cc1", "note": "(some centres unmarked) [Compound 201]", "IC50": 5600, "Ki": 1.7}
{"smiles": "CC(C)(C)NC(=O)[C@@H]1C[C@@H]2CCCC[C@@H]2CN1C[C@@H](O)[C@H](Cc1ccccc1)NC(=O)OC1CCCC12CCCO2", "note": "(single isomer, unassigned) [Compound 145]", "IC50": 96000}
{"smiles": "O=C(N[C@@H](Cc1ccccc1)[C@H](O)CN1CCCCCCCCCOc2cccc(c2)S1(=O)=O)O[C@H]1CO[C@H]2OCCC21", "note": "(some centres unmarked) [Compound 225b]", "IC50": 7800, "Ki": 2.4}
{"smiles": "CC(C)CN(C[C@@H](O)[C@H](Cc1ccccc1)NC(=O)O[C@H]1CCOC1)S(=O)(=O)c1cncc(N)c1", "note": "[Compound 170]", "IC50": 2400, "Ki": 0.74}
{"smiles": "Cc1ccc(S(=O)(=O)N(CCN(C)C)C[C@@H](O)[C@H](Cc2ccccc2)NC(=O)O[C@H]2C[C@H]3CCO[C@H]3C2)cc1CO", "note": "[Compound 159]", "IC50": 204000, "Ki": 63}
{"smiles": "O=C(N[C@@H](Cc1ccccc1)[C@H](O)CN1CCCC/C=C/CCCC(O)c2cccc(c2)S1(=O)=O)OCc1cccnc1", "note": "(some centres unmarked) [Compound 239]", "IC50": 34000, "Ki": 11}
{"smiles": "O=C(N[C@@H](Cc1ccccc1)[C@H](O)CN1CCC/C=C\\CCCCOc2ccccc2COC1=O)O[C@@H]1CC2CCO[C@@H]2C1", "note": "(some centres unmarked) [Compound 227]", "IC50": 495000, "Ki": 154}
{"smiles": "CC(C)CN(C[C@@H](O)[C@H](Cc1ccccc1)NC(=O)O[C@H]1CO[C@H]2OCC[C@H]21)[C@@H]1C(=O)Nc2ccccc21", "note": "[Compound 250]", "Ki": 1}
{"smiles": "COc1ccc(S(=O)(=O)N(CC(C)C)C[C@@H](O)[C@H](Cc2ccc(O)cc2)NC(=O)O[C@H]2CO[C@H]3OCCC32)cc1", "note": "(some centres unmarked) [Compound 213]", "IC50": 4100, "Ki": 1.3}
{"smiles": "CC(C)CN(C[C@@H](O)[C@H](Cc1ccccc1)NC(=O)O[C@H]1CCOC1)S(=O)(=O)c1ccc(Cl)c(O)c1", "note": "[Compound 153]", "IC50": 3600, "Ki": 1.1}
{"smiles": "Cc1ccc(S(=O)(=O)N(CC(C)C)C[C@@H](O)[C@H](CC2CCN(Cc3ccccc3)CC2)NC(=O)O[C@H]2CCOC2)cc1", "note": "[Compound 150]", "IC50": 540000}
{"smiles": "CC(C)CN(C[C@@H](O)[C@H](Cc1ccccc1)NC(=O)OC1CO[C@H]2OCCC12)S(=O)(=O)c1cncc([N+](=O)[O-])c1", "note": "(some centres unmarked) [Compound 165]", "IC50": 3500, "Ki": 1}
{"smiles": "O=C(N[C@@H](Cc1ccccc1)[C@H](O)CN1CCCCCCCC(O)c2cccc(c2)S1(=O)=O)O[C@@H]1CC2CCO[C@@H]2C1", "note": "(some centres unmarked) [Compound 238]", "IC50": 4000, "Ki": 1.2}
{"smiles": "CC(C)CN(C[C@@H](O)[C@H](Cc1ccccc1)NC(=O)OC1CC2CCO[C@@H]2C1)S(=O)(=O)c1cncc([N+](=O)[O-])c1", "note": "(some centres unmarked) [Compound 167]", "IC50": 4500, "Ki": 1.4}
{"smiles": "Cc1ccc(S(=O)(=O)N(CC(C)C)C[C@@H](O)[C@H](CC2CCN(C(=O)c3ccccc3)CC2)NC(=O)OC2CCCC23CCCO3)cc1", "note": "(some centres unmarked) [Compound 148]", "IC50": 185000}
{"smiles": "CC(C)CN(C[C@@H](O)[C@H](Cc1ccccc1)NC(=O)O[C@@H]1CC2CCO[C@@H]2C1)S(=O)(=O)c1ccc(N)cc1", "note": "(some centres unmarked) [Compound 261]", "IC50": 2200}
{"smiles": "CC(C)CN(C[C@@H](O)[C@H](Cc1ccccc1)NC(=O)OC1CO[C@H]2OCC[C@@H]12)C1CC2(CCCC2)NC1=O", "note": "(some centres unmarked) [Compound 270]", "IC50": 6400}
{"smiles": "CC(C)CN(C[C@H](O)C(Cc1ccccc1)NC(=O)O[C@@H]1C[C@@H]2CCO[C@@H]2C1)S(=O)(=O)c1ccc(CO)cc1", "note": "(some centres unmarked) [Compound 254]", "IC50": 1000}
{"smiles": "CC(C)CN(C[C@@H](O)[C@H](Cc1ccccc1)NC(=O)OC1CC2CCO[C@@H]2C1)S(=O)(=O)c1ccc(CN(C)C)cc1", "note": "(some centres unmarked) [Compound 127]", "IC50": 50000}
{"smiles": "O=C(N[C@@H](Cc1ccccc1)[C@H](O)CN1CCCC/C=C\\COc2cccc(c2)S1(=O)=O)O[C@@H]1CC2CCO[C@@H]2C1", "note": "(some centres unmarked) [Compound 225g]", "IC50": 10000, "Ki": 3.1}
{"smiles": "O=C(N[C@@H](Cc1ccccc1)[C@H](O)CN1CCCC/C=C\\CCCCOc2cccc(c2)S1(=O)=O)O[C@@H]1CC2CCO[C@@H]2C1", "note": "(some centres unmarked) [Compound 235]", "IC50": 9300, "Ki": 2.9}
{"smiles": "COc1ccc(S(=O)(=O)N(CC(C)C)C[C@@H](O)[C@H](Cc2ccccc2)NC(=O)OC2CC[C@@]3(CCCO3)C2)cc1", "note": "(some centres unmarked) [Compound 145c]", "IC50": 15000}
{"smiles": "COc1ccc(S(=O)(=O)N(CC(C)C)C[C@@H](O)[C@H](Cc2ccc(OCc3ccccc3)cc2)NC(=O)O[C@H]2CO[C@H]3OCCC32)cc1", "note": "(some centres unmarked) [Compound 212]", "IC50": 30000, "Ki": 9.3}
{"smiles": "CC(C)CN(C[C@@H](O)[C@H](Cc1ccccc1)NC(=O)O[C@H]1CCOC1)S(=O)(=O)c1ccc(CN2CCN(C)CC2)cc1", "note": "[Compound 138]", "IC50": 270000}
{"smiles": "CC(C)CN(C[C@@H](O)[C@H](Cc1ccccc1)NC(=O)O[C@H]1C[C@H]2CCO[C@H]2C1)S(=O)(=O)c1cncc([N+](=O)[O-])c1", "note": "[Compound 171]", "IC50": 14000, "Ki": 4.3}
{"smiles": "Cc1cc(S(=O)(=O)N(CC(C)C)C[C@@H](O)[C@H](Cc2ccccc2)NC(=O)O[C@@H]2CC3CCO[C@@H]3C2)ccc1CO", "note": "(some centres unmarked) [Compound 259]", "IC50": 2800}
{"smiles": "O=C(N[C@@H](Cc1ccccc1)[C@H](O)CN(CCN1CCOCC1)S(=O)(=O)c1ccc(Cl)c(O)c1)OC1CC2CCO[C@@H]2C1", "note": "(some centres unmarked) [Compound 155]", "IC50": 16000, "Ki": 4.9}
